We go through 32 compounds from US20230136562A1, “SPIROUREA DERIVATIVES” (Idorsia Pharmaceuticals Ltd, priority 2020, published 2023).

Read-outs that look alike come from different tables or passages of the source.

This experiment relates to primary neuronal cultures from embryonic rat brains. Nature of the experiment: Rat oscillation assay (FLIPR, neuronal calcium oscillations). It counts as cell-based. The conditions noted are these: Rattus norvegicus. An outline of the steps: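 Cortical neurons from E18 Wistar rat embryos, cultured 8–10 days at high density, loaded with 1 μM Fluo-8 AM; calcium oscillations recorded by FLIPR once per second in Mg-free HBSS with 2 mM CaCl2, 20 mM HEPES, pH 7.4. Two acquisitions ("Acute", 500 sec, compound added at 250 sec; "20 min"), ± Kv7 blocker XE-991.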

Setting [1] is: 20 min, AUC of fluorescence measured 20 min after compound addition, read-out: FLIPR: IC50 [nM] 20 min.
[2] abbreviates: Acute phase, ratio of AUC fluorescence before and after compound addition, read-out: FLIPR: IC50 [nM] acute.

What is called IC50 is the concentration that gives 50% inhibition. As to `O=C(NCc1cc(C(F)(F)F)ccc1F)NC1CC2(CCC2)C1` [Example 16, 1-(2-Fluoro-5-trifluoromethyl-benzyl)-3-spiro[3.3]hept-2-yl-urea], the IC50 by setting is: under setting [1], 196 nM; under setting [2], 224 nM.

Take `COCC(Oc1cccc(CNC(=O)NC2CC3(CCC3)C2)n1)C(F)(F)F` (racemic) [Example 104, (±)-1-Spiro[3.3]hept-2-yl-3-[6-(2,2,2-trifluoro-1-methoxymethyl-ethoxy)-pyridin-2-ylmethyl]-urea]: the IC50 runs as follows: under setting [1], 295 nM; under setting [2], 292 nM.

`O=C(NC1CC2(CC2)C1)NC1(c2cccc(OC(F)F)c2)CC1` [Example 136, 1-[1-(3-Difluoromethoxy-phenyl)-cyclopropyl]-3-spiro[2.3]hex-5-yl-urea]: the IC50 came to 386 nM under setting [1] and 334 nM under setting [2].

On to `O=C(NC1CC2(CCC2)C1)NC(CC(F)F)c1cccc(C(F)(F)F)c1` (racemic) [Example 84, (±)-1-[3,3-Difluoro-1-(3-trifluoromethyl-phenyl)-propyl]-3-spiro[3.3]hept-2-yl-urea], for which the IC50 is 4.2 nM under setting [1] and 5.1 nM under setting [2].

Take `CNC(=O)C(NC(=O)NC1CC2(CCC2)C1)c1cccc(C(F)(F)F)c1` (racemic) [Example 63, (±)-N-Methyl-2-(3-spiro[3.3]hept-2-yl-ureido)-2-(3-trifluoromethyl-phenyl)-acetamide]: the IC50 is, setting by setting: under setting [1], 92 nM; under setting [2], 46 nM.

Regarding `CC(NC(=O)NC1CC2(CC2)C1)c1cc(OCC(F)(F)F)ccc1F` (racemic) [Example 129, (±)-1-{1-[2-Fluoro-5-(2,2,2-trifluoro-ethoxy)-phenyl]-ethyl}-3-spiro[2.3]hex-5-yl-urea], the IC50 by setting is: under setting [1], 254 nM; under setting [2], 212 nM.

Turning to `Cc1cc(OCC(F)(F)F)cc(C(C)NC(=O)NC2CC3(CCC3)C2)c1` (racemic) [Example 32, (±)-1-{1-[3-Methyl-5-(2,2,2-trifluoro-ethoxy)-phenyl]-ethyl}-3-spiro[3.3]hept-2-yl-urea], the IC50 was found to be 14 nM under setting [1] and 24 nM under setting [2].

In the case of `COc1c(C(C)NC(=O)NC2CC3(CC3)C2)cccc1C(F)(F)F` (racemic) [Example 133, (±)-1-[1-(2-Methoxy-3-trifluoromethyl-phenyl)-ethyl]-3-spiro[2.3]hex-5-yl-urea], the IC50 under setting [1] was 670 nM and the IC50 under setting [2] came to 396 nM.

Regarding `O=C(NC1CC2(CCC2)C1)NC(c1cccc(OC(F)F)c1)C1CC1` (racemic) [Example 25, (±)-1-[Cyclopropyl-(3-difluoromethoxy-phenyl)-methyl]-3-spiro[3.3]hept-2-yl-urea], the IC50 is, setting by setting: under setting [1], 19 nM; under setting [2], 10 nM.

In the case of `COCCOCC(NC(=O)NC1CC2(CCC2)C1)c1cccc(C(F)(F)F)c1` (racemic) [Example 71, (±)-1-[2-(2-Methoxy-ethoxy)-1-(3-trifluoromethyl-phenyl)-ethyl]-3-spiro[3.3]hept-2-yl-urea], the IC50 runs as follows: under setting [1], 105 nM; under setting [2], 92 nM.

For the compound `Cc1ccc(CNC(=O)NC2CC3(CCC3)C2)nc1OCC(F)(F)F` [Example 108, 1-[5-Methyl-6-(2,2,2-trifluoro-ethoxy)-pyridin-2-ylmethyl]-3-spiro[3.3]hept-2-yl-urea], the IC50 is 279 nM under setting [1] and 205 nM under setting [2].

Consider `Cc1nc(OCC(F)(F)F)cc(C(C)NC(=O)NC2CC3(CC3)C2)n1` (racemic) [Example 145, (±)-1-{1-[2-Methyl-6-(2,2,2-trifluoro-ethoxy)-pyrimidin-4-yl]-ethyl}-3-spiro[2.3]hex-5-yl-urea], for which the IC50 is, setting by setting: under setting [1], 80 nM; under setting [2], 57 nM.

As to `O=C(NCc1ccc(F)c(C(F)(F)F)c1)NC1CC2(CC2)C1` [Example 148, 1-(4-Fluoro-3-trifluoromethyl-benzyl)-3-spiro[2.3]hex-5-yl-urea], the IC50 runs as follows: under setting [1], 355 nM; under setting [2], 312 nM.

Turning to `CC(NC(=O)NC1CC2(CCC2)C1)c1cccc(C(F)(F)F)c1` (racemic) [Example 23, (±)-1-Spiro[3.3]hept-2-yl-3-[1-(3-trifluoromethyl-phenyl)-ethyl]-urea], the IC50 is, setting by setting: under setting [1], 4.6 nM; under setting [2], 13 nM.

Consider `CC(NC(=O)NC1CC2(CCC2)C1)c1cccc(OCC(F)(F)F)c1F` (racemic) [Example 98, (±)-1-{1-[2-Fluoro-3-(2,2,2-trifluoro-ethoxy)-phenyl]-ethyl}-3-spiro[3.3]hept-2-yl-urea], for which the IC50 reads like this: under setting [1], 14 nM; under setting [2], 11 nM.

`COCC(NC(=O)NC1CC2(CCC2)C1)c1cccc(S(C)(=O)=O)c1` (racemic) [Example 86, (±)-1-[1-(3-Methanesulfonyl-phenyl)-2-methoxy-ethyl]-3-spiro[3.3]hept-2-yl-urea]: the IC50 reads like this: under setting [1], 91 nM; under setting [2], 110 nM.

For the compound `CC(NC(=O)NC1CC2(CCC2)C1)c1ccc(Cl)c(OCC(F)(F)F)c1` (racemic) [Example 27, (±)-1-{1-[4-Chloro-3-(2,2,2-trifluoro-ethoxy)-phenyl]-ethyl}-3-spiro[3.3]hept-2-yl-urea], the IC50 under setting [1] was found to be 169 nM and the IC50 under setting [2] turned out to be 278 nM.

With `COc1c(C(C)NC(=O)NC2CC3(CCC3)C2)cccc1C(F)(F)F` (racemic) [Example 21, (±)-1-[1-(2-Methoxy-3-trifluoromethyl-phenyl)-ethyl]-3-spiro[3.3]hept-2-yl-urea], the IC50 runs as follows: under setting [1], 72 nM; under setting [2], 112 nM.

Consider `CC(NC(=O)NC1CC2(CCC2)C1)c1ccnc(OC(F)(F)F)c1` (racemic) [Example 97, (±)-1-Spiro[3.3]hept-2-yl-3-[1-(2-trifluoromethoxy-pyridin-4-yl)-ethyl]-urea], for which the 50% inhibitory concentration (IC50) under setting [1] stood at 170 nM and the IC50 under setting [2] is 53 nM.

With `CC(Oc1cccc(C2(NC(=O)NC3CC4(CCC4)C3)CC2)c1)C(F)(F)F` (racemic) [Example 111, (±)-1-Spiro[3.3]hept-2-yl-3-{1-[3-(2,2,2-trifluoro-1-methyl-ethoxy)-phenyl]-cyclopropyl}-urea], the IC50 is, setting by setting: under setting [1], 34 nM; under setting [2], 26 nM.

For `COCC(NC(=O)NC1CC2(CCC2)C1)c1ccnc(OCC(F)(F)F)c1` (racemic) [Example 92, (±)-1-{2-Methoxy-1-[2-(2,2,2-trifluoro-ethoxy)-pyridin-4-yl]-ethyl}-3-spiro[3.3]hept-2-yl-urea], the IC50 runs as follows: under setting [1], 0.8 nM; under setting [2], 1.3 nM.

Regarding `COc1c(CNC(=O)NC2CC3(CC3)C2)cccc1C(F)(F)F` [Example 128, 1-(2-Methoxy-3-trifluoromethyl-benzyl)-3-spiro[2.3]hex-5-yl-urea], the half-maximal inhibitory concentration (IC50) is, setting by setting: under setting [1], 950 nM; under setting [2], 981 nM.

Take `O=C(NCc1cccc(C(F)(F)F)c1F)NC1CC2(CC2)C1` [Example 149, 1-(2-Fluoro-3-trifluoromethyl-benzyl)-3-spiro[2.3]hex-5-yl-urea]: the IC50 runs as follows: under setting [1], 103 nM; under setting [2], 98 nM.

With `CC(NC(=O)NC1CC2(CC(I)C2)C1)c1ccnc(OC(F)F)c1` (racemic) [Example 166, (±)-1-[1-(2-Difluoromethoxy-pyridin-4-yl)-ethyl]-3-(6-iodo-spiro[3.3]hept-2-yl)-urea], the IC50 came out at 474 nM under setting [1] and 889 nM under setting [2].

As for `O=C(NC1CC2(CC2)C1)NC(c1cccc(C(F)(F)F)c1)C(F)F` (racemic) [Example 146, (±)-1-[2,2-Difluoro-1-(3-trifluoromethyl-phenyl)-ethyl]-3-spiro[2.3]hex-5-yl-urea], the IC50 reads like this: under setting [1], 6.6 nM; under setting [2], 4.2 nM.

Take `COc1ccc(C(F)(F)F)cc1C(C)NC(=O)NC1CC2(CC2)C1` (racemic) [Example 137, (±)-1-[1-(2-Methoxy-5-trifluoromethyl-phenyl)-ethyl]-3-spiro[2.3]hex-5-yl-urea]: the IC50 runs as follows: under setting [1], 1020 nM; under setting [2], 1240 nM.

As to `O=C(NC1CC2(CC2)C1)NC(CO)c1cc(OCC(F)(F)F)ncn1` (racemic) [Example 122, (±)-1-{2-Hydroxy-1-[6-(2,2,2-trifluoro-ethoxy)-pyrimidin-4-yl]-ethyl}-3-spiro[2.3]hex-5-yl-urea], the IC50 was 658 nM under setting [1] and 339 nM under setting [2].

For the compound `COCC(NC(=O)NC1CC2(CCC2)C1)c1ccnc(OC(F)F)c1` (racemic) [Example 10, (±)-1-[1-(2-Difluoromethoxy-pyridin-4-yl)-2-methoxy-ethyl]-3-spiro[3.3]hept-2-yl-urea], the IC50 under setting [1] turned out to be 6 nM and the IC50 under setting [2] is 6.2 nM.

Turning to `O=C(NCc1cccc2c1OC(F)(F)O2)NC1CC2(CCC2)C1` [Example 46, 1-(2,2-Difluoro-benzo[1,3]dioxol-4-ylmethyl)-3-spiro[3.3]hept-2-yl-urea], the IC50 was 285 nM under setting [1] and 234 nM under setting [2].

On to `COc1ccc(C(C)NC(=O)NC2CC3(CCC3)C2)cc1OCC(F)(F)F` (racemic) [Example 28, (±)-1-{1-[4-Methoxy-3-(2,2,2-trifluoro-ethoxy)-phenyl]-ethyl}-3-spiro[3.3]hept-2-yl-urea], for which the IC50 was 600 nM under setting [1] and 629 nM under setting [2].

For `CN(C)CC(NC(=O)NC1CC2(CCC2)C1)c1cccc(OCC(F)(F)F)n1` (racemic) [Example 48, (±)-1-{2-Dimethylamino-1-[6-(2,2,2-trifluoro-ethoxy)-pyridin-2-yl]-ethyl}-3-spiro[3.3]hept-2-yl-urea], the IC50 came to 138 nM under setting [1] and 510 nM under setting [2].

Take `C=CCC(NC(=O)NC1CC2(CCC2)C1)c1cccc(C(F)(F)F)c1` (racemic) [Example 80, (±)-1-Spiro[3.3]hept-2-yl-3-[1-(3-trifluoromethyl-phenyl)-but-3-enyl]-urea]: the IC50 under setting [1] amounted to 14 nM and the IC50 under setting [2] worked out at 13 nM.
